Laboratory results as given in US20080171783A1, “COMPOSITIONS AND METHODS FOR TREATING HYPERPROLIFERATIVE DISEASE” (Migenix Inc., priority 2006, published 2008).
Where two headings read alike, the source gives them in different places.

Assays:
HL-60 = assay: Cell viability by XTT; format: cell-based; conditions: HL-60, single dose 10 μM, four days
Method: (§1) Compounds were solubilized at […] in DMSO and were stored at −20° C. Test compounds were initially tested at a single concentration of 10 μM and a subset of test compounds were further tested in selected cell lines using a six concentration dose response curve.
(§2) Cell Preparation Cancer cell lines were passaged in T-75 flasks prior to use in the assay in cell culture medium recommended by the ATCC (American Type Culture Collection; Table 6). On the day preceding the assay, the cells were split 1:2 to assure they were in an exponential growth phase at the time of compound treatment. Total cell and viability quantification was performed using a hemocytometer and Trypan Blue dye exclusion. […] The cells were resuspended at the appropriate cell per mL (Table 6) in tissue culture medium and added to the microtitre plates in a volume of 100 μL. Colon cell lines were incubated overnight at 37° C./5% CO2 to allow for cell adherence to the plates.
(§3) Plate Format: Each plate contains cell control wells (cells only), drug calorimetric control wells (drug only) as well as experimental wells (drug plus cells). Samples were tested in triplicate at a concentration of 10 μM and five half-logarithmic dilutions.
(§4) Cell Viability by XTT: Following incubation at 37° C. in a 5% CO2 incubator for four days, the test plates were stained with the tetrazolium dye XTT (2,3-bis(2-methoxy-4-nitro-5-sulfophenyl)-5-[(phenylamino)carbonyl]-2H-tetrazolium hydroxide). XTT-tetrazolium was metabolized by the mitochondrial enzymes of metabolically active cells to a soluble formazan product. XTT solution was prepared daily as a stock of 1 mg/mL in RPMI1640. Phenazine methosulfate (PMS) solution was prepared at 0.15 mg/mL in phosphate buffered saline (PBS) and stored in the dark at −20° C. XTT/PMS stock was prepared immediately before use by adding 40 μL of PMS per mL of XTT solution. Fifty (50) microlitres of XTT/PMS was added to each well of the plate and the plate was reincubated for 4 hours at 37° C. Plates were sealed with adhesive plate sealers and shaken gently or inverted several times to mix the soluble formazan product and the plate was read spectrophotometrically at 450/650 nm with a Molecular Devices Vmax plate reader. […] An Average Response Factor (ARF) was calculated for each compound by averaging the ten Percentage of Control values for the cell lines. […] Deviations below 100% control indicate activity. The concentration of each tested compound is 10 μM.

HCT-15 = assay: Cell viability by XTT; format: cell-based; conditions: HCT-15, single dose 10 μM, four days
Method: as §1, §2, §3, §4

HT29 = assay: cells; conditions: for Percentage of Cell Control: HT29, single dose 10 μM, four days
Method: as §1, §2, §3, §4

[1] = test system: 5 Leukemia and 5 Colon Cancer Cell Lines; assay: Cell viability by XTT, cell line panel; format: cell-based; conditions: for Range (Percentage of Control over the same 10 cell lines) / ARF (Average Response Factor, Average Percentage of Control): 10 μM; for Range (Percentage of Control over the same 10 cell lines): lowest to highest of the ten cell lines
Method: as §1, §2, §3, §4

Calf polymerase alpha = target: T1, Calf polymerase alpha (Bos taurus, UniProt A0AAA9TD94); assay: Calf polymerase alpha inhibition (Replizyme kit); format: biochemical; conditions: at 10 μM, single point screening
T1 construct: purchased Replizyme Ltd (Heslington, York, UK)
T1 sequence (A0AAA9TD94 1-1441): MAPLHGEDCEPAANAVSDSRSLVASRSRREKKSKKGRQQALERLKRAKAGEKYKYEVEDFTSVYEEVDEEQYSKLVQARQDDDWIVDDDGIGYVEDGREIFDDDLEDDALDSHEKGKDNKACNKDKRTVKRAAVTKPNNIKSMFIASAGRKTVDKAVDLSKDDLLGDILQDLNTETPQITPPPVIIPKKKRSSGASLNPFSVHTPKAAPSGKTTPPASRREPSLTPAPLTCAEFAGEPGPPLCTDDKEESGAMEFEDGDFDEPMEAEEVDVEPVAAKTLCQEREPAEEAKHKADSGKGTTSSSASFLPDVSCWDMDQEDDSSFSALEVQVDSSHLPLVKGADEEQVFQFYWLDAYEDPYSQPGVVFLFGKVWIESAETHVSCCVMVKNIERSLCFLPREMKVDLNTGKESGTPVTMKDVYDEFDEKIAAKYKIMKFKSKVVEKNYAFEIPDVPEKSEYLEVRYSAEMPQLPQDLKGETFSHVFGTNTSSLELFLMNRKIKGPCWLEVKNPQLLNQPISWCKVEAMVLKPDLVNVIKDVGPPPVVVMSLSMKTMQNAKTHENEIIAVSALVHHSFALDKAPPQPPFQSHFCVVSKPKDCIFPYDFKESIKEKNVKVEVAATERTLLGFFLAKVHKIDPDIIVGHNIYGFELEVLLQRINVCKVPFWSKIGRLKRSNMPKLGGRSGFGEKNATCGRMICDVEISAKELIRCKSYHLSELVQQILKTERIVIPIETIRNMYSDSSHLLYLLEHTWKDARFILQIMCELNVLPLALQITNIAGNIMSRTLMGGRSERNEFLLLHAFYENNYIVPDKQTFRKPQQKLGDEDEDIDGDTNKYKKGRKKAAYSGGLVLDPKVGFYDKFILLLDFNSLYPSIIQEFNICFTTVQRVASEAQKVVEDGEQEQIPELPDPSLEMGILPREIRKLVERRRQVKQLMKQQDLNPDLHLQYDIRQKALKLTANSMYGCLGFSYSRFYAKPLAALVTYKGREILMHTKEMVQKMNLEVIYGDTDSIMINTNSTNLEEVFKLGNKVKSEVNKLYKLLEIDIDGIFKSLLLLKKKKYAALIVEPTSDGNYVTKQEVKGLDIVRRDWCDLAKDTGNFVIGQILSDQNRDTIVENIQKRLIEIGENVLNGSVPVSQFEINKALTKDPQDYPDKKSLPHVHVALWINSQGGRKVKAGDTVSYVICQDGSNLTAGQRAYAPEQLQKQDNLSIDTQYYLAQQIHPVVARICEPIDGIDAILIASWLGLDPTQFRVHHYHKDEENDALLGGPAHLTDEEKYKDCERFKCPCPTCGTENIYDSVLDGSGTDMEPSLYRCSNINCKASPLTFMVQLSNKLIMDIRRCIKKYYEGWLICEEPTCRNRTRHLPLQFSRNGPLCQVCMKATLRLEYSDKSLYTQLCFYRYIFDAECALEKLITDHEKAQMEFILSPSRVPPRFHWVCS
Method: Calf polymerase alpha and human polymerase alpha investigations were performed with a kit available from Replizyme Ltd (Heslington, York, UK).

THP-1 = assay: Cell viability by XTT; conditions: for Percentage of Cell Control: THP-1, single dose 10 μM, four days
Method: as §1, §2, §3, §4

Caco-2 = assay: Cell viability by XTT; conditions: for Percentage of Cell Control: Caco-2, single dose 10 μM, four days
Method: as §1, §2, §3, §4

Jurkat = assay: Cell viability by XTT; conditions: for Percentage of Cell Control: single dose 10 μM, four days
Method: as §1, §2, §3, §4

[2] = average of the ten Percentage of Control values
[3] = read-out: Activity (TC50), Caco-2, six concentration dose response, Table 9

NCCCC[C@H](NC(=O)OCC1c2ccccc2-c2ccccc21)C(=O)Nc1ccc(OCc2ccccc2)c(Cl)c1 [Compound 210, (S)-[5-AMINO-1-(4-BENZYLOXY-3-CHLORO-PHENYLCARBAMOYL)-PENTYL]-CARBAMIC ACID 9H-FLUOREN-9-YLMETHYL ESTER]
Percentage of Cell Control (HL-60): 0.4%
Percentage of Cell Control (HCT-15): 71.8%
Percentage of Cell Control (HT29): 0%
CC50 (HT29; Homo sapiens, HT-29, read-out: Activity (TC50)): 9.8 µM
Range (Percentage of Control over the same 10 cell lines) [1]: 0 to 94.0%
viability at 10 µM ([1]; average of the ten Percentage of Control values, read-out: ARF (Average Response Factor, Average Percentage of Control)): 41.1%
inhibition at 10 µM (Calf polymerase alpha): 104%
CC50 (THP-1; Homo sapiens, THP-1, read-out: Activity (TC50)): 7.7 µM
Percentage of Cell Control (THP-1): 0%
Percentage of Cell Control (Caco-2): 2.4%
CC50 (Caco-2; Homo sapiens, Caco-2, read-out: Activity (TC50)): 10 µM
CC50 (Jurkat; Homo sapiens, read-out: Activity (TC50)): 5.4 µM
Percentage of Cell Control (Jurkat): 9.3%

Cc1ccc(NC(=O)[C@H](CCCCN)NCc2ccc(NC(=O)Nc3ccncc3)cc2)cc1 [Compound 262, (S)-6-AMINO-2-[4-(3-PYRIDIN-4-YL-UREIDO)-BENZYLAMINO]-HEXANOIC ACID P-TOLYLAMIDE]
Percentage of Cell Control (HL-60): 53.1%
Percentage of Cell Control (HCT-15): 75%
Percentage of Cell Control (HT29): 63.8%
ARF (Average Response Factor, Average Percentage of Control) [1, 2]: 69.4%
Range (Percentage of Control over the same 10 cell lines) [1]: 3.1 to 121.1%
% Inhibition (Calf polymerase alpha): 102%
Percentage of Cell Control (THP-1): 49.4%
CC50 (THP-1; read-out: Activity (TC50), THP-1, six concentration dose response, Table 9): 7.9 µM
Percentage of Cell Control (Caco-2): 21.6%
CC50 (Caco-2; [3]): 8.7 µM
CC50 (Jurkat; read-out: Activity (TC50), six concentration dose response, Table 9): 5.5 µM
Percentage of Cell Control (Jurkat): 3.1%

Cc1ccc(NC(=O)[C@H](CCCCN)NC(=O)Cc2ccc(-c3ccccc3)cc2)cc1 [Compound 50, (S)-6-AMINO-2-(2-BIPHENYL-4-YL-ACETYLAMINO)-HEXANOIC ACID P-TOLYLAMIDE]
Percentage of Cell Control (HL-60): 91.7%
Percentage of Cell Control (HCT-15): 114.3%
Percentage of Cell Control (HT29): 27.7%
ARF (Average Response Factor, Average Percentage of Control) [1, 2]: 77.7%
Range (Percentage of Control over the same 10 cell lines) [1]: 4.6 to 122%
% Inhibition (Calf polymerase alpha): 71%
Percentage of Cell Control (THP-1): 89.7%
Percentage of Cell Control (Caco-2): 8.3%
CC50 (Caco-2; [3]): 9.4 µM
Percentage of Cell Control (Jurkat): 4.6%
